Results: patent US7122666B2, “Heteroaryl-substituted pyrrole derivatives, their preparation and their therapeutic uses” (Sankyo Company, Limited, priority 1999, dated 2006)
Read-outs that look alike come from different tables or passages of the source.

Legend:
[1] = test system: TNFα production in human whole blood; experiment: Inhibition of the production of TNFα in vitro in human whole blood (Test Examples 1 and 1′); type: cell-based; conditions: 6 hours at 37° C., plasma TNFα by ELISA
Protocol: (§1) Inhibition of the Production of the Cytokines IL-1β and TNFα in Vitro in Human Whole Blood
(§2) This test was performed according to the method of Hartman, et al. [D. A. Hartman, S. J. Ochalski and R. P. Carlson; The effects of anti-inflammatory and antiallergic drugs on cytokine release after stimulation of human whole blood by lipopolysaccharide and zymosan A: Inflamm. Res., 44, 269 (1995)].
(§3) Peripheral blood samples were collected in the presence of heparin from healthy adult volunteers. 1000 μl of whole blood were added to an Eppendorf tube to which 2 μl of a dimethyl sulfoxide solution of the test compound had been added in advance, after which 10 μl of lipopolysaccharide (E. coli 026: B6 origin, Difco) were added as a stimulant (final concentration of said lipopolysaccharide: 10 μg/ml). This was mixed well and then incubated for 6 hours at 37° C. in the presence of 5% CO2. At the end of the incubation, the mixture was cooled to 4° C. to stop the reaction, followed immediately by centrifuging for 5 minutes at 14,000 rpm to separate and collect the supernatant plasma. The IL-1β and TNFα produced and released into the plasma were measured using a commercially available enzyme immunoassay (ELISA) kit [Cayman (IL-1β) and Genzyme (TNFα)]. The procedure was also repeated in the absence of test compound. The inhibitory effect [IC50 (μM)] on the production of IL-1β and TNFα was determined from the amounts of the cytokines produced in the presence and absence of the test compound.
(§4) Inhibition of the Production of the Cytokines IL-1β and TNFα In Vitro in Human Whole Blood
as §3, with “O26:” for “026:”, “plasma” for “plasma.”, “kits” for “kit”, “determined by the method of least squares” for “determined”

[2] = test system: IL-1β production in human whole blood; experiment: Inhibition of the production of IL-1β in vitro in human whole blood (Test Examples 1 and 1′); type: cell-based; conditions: Table 8′, lipopolysaccharide 10 μg/ml, 6 hours at 37° C., plasma IL-1β by ELISA, least squares, read-out: Inhibitory Effect on IL-1β Production (in vitro) IC50
Protocol: as §1, §2, §3, §4
as §3, with “O26:” for “026:”, “plasma” for “plasma.”, “kits” for “kit”, “determined by the method of least squares” for “determined”

[3] = Table 3, lipopolysaccharide 10 μg/ml, read-out: Inhibitory Effect on TNFα Production [IC50 (μM)]
[4] = Table 7′, lipopolysaccharide 10 μg/ml, least squares, read-out: Inhibitory Effect on TNFα Production (in vitro) IC50

| SMILES | IC50 [1, 3] | IC50 [1, 4] | IC50 [2] |
| --- | --- | --- | --- |
| Fc1ccc(-c2[nH]cc(C3=CC4CCC(C3)N4)c2-c2ccncc2)cc1 (racemic) [Example 45, (±)-4-(8-Azabicyclo[3.2.1]oct-2-en-3-yl)-2-(4-fluorophenyl)-3-(pyridin-4-yl)-1H-pyrrole] | 0.14 µM |  |  |
| Fc1ccc(-c2[nH]cc(C3=CC4CC5(CCCC5)CN4CC3)c2-c2ccncc2)cc1 (racemic) [Example 47′, (±)-4-[Cyclopentanespiro-2′-(1′,2′,3′,5′,6′,8a′-hexahydroindolizin)-7′-yl]-2-(4-fluorophenyl)-3-(pyridin-4-yl)-1H-pyrrole] |  | 0.01 µM | 0.033 µM |
| Fc1ccc(-c2[nH]cc(C3=CC4CCCN4CC3)c2-c2ccncc2)cc1 (racemic) [Example 60, (±)-2-(4-Fluorophenyl)-4-(1,2,3,5,6,8a-hexahydroindolizin-7-yl)-3-(pyridin-4-yl)-1H-pyrrole] | 0.047 µM |  |  |
| CCCN1CCC(c2c[nH]c(-c3ccc(F)cc3)c2-c2ccncc2)=CC1C (racemic) [Example 85, (±)-2-(4-Fluorophenyl)-4-(6-methyl-1-propyl-1,2,3,6-tetrahydropyridin-4-yl)-3-(pyridin-4-yl)-1H-pyrrole] | 0.44 µM |  |  |
| CCCN1CC=C(c2c[nH]c(-c3ccc(F)cc3)c2-c2ccncc2)CC1C (racemic) [Example 86, (±)-2-(4-Fluorophenyl)-4-(2-methyl-1-propyl-1,2,3,6-tetrahydropyridin-4-yl)-3-(pyridin-4-yl)-1H-pyrrole] | 0.29 µM |  |  |
| Fc1ccc(-c2[nH]cc(C3=CC4CCCCN4CC3)c2-c2ccncc2)cc1 (racemic) [Example 87, (±)-2-(4-Fluorophenyl)-4-(1,3,4,6,7,9a-hexahydro-2H-quinolizin-8-yl)-3-(pyridin-4-yl)-1H-pyrrole] | 0.31 µM |  |  |
| Fc1ccc(-c2[nH]cc(C3=CC4CCCN4CC3)c2-c2ccncc2)cc1F (racemic) [Example 92, (±)-2-(3,4-Difluorophenyl)-4-(1,2,3,5,6,8a-hexahydroindolizin-7-yl)-3-(pyridin-4-yl)-1H-pyrrole] | 0.045 µM |  |  |
| FC(F)(F)c1cccc(-c2[nH]cc(C3=CC4CCCN4CC3)c2-c2ccncc2)c1 (racemic) [Example 94, (±)-4-(1,2,3,5,6,8a-Hexahydroindolizin-7-yl)-3-(pyridin-4-yl)-2-(3-trifluoromethylphenyl)-1H-pyrrole] | 0.031 µM |  |  |
| Fc1ccc(-c2[nH]c(C3CCNCC3)cc2-c2ccncc2)cc1 [Compound A, reference compound] | 1.9 µM | 1.9 µM |  |
| Fc1ccc(-c2ncn(C3CCNCC3)c2-c2ccncc2)cc1 [Compound B, reference compound] | 1.73 µM | 1.73 µM |  |
| CO[C@@H]1C[C@H]2C=C(c3c[nH]c(-c4ccc(F)cc4)c3-c3ccncc3)CCN2C1 [Example 2′, 2-(4-Fluorophenyl)-4-[(2R,8aS)-2-methoxy-1,2,3,5,6,8a-hexahydroindolizin-7-yl]-3-(pyridin-4-yl)-1H-pyrrole] |  | 0.062 µM | 0.031 µM |
| O[C@@H]1C[C@H]2C=C(c3c[nH]c(-c4ccc(F)cc4)c3-c3ccncc3)CCN2C1 [Example 4′, 2-(4-Fluorophenyl)-4-[(2R,8aS)-2-hydroxy-1,2,3,5,6,8a-hexahydroindolizin-7-yl]-3-(pyridin-4-yl)-1H-pyrrole] |  | 0.054 µM | 0.041 µM |
| Fc1ccc(-c2[nH]cc(C3=C[C@@H]4C[C@H](Cl)CN4CC3)c2-c2ccncc2)cc1 [Example 6′, 4-[(2S,8aS)-2-Chloro-1,2,3,5,6,8a-hexahydroindolizin-7-yl]-2-(4-fluorophenyl)-3-(pyridin-4-yl)-1H-pyrrole] |  | 0.027 µM |  |
| Fc1ccc(-c2[nH]cc(C3=C[C@@H]4CC5(CN4CC3)OCCO5)c2-c2ccncc2)cc1 [Example 14′, 4-[(8aS)-2,2-Ethylenedioxy-1,2,3,5,6,8a-hexahydroindolizin-7-yl]-2-(4-fluorophenyl)-3-(pyridin-4-yl)-1H-pyrrole] |  | 0.004 µM | 0.0092 µM |
| Fc1ccc(-c2[nH]cc(C3=C[C@@H]4CCCN4CC34CC4)c2-c2ccncc2)cc1 [Example 19′, 4-[Cyclopropanespiro-6′-[(8a′S)-1′,2′,3′,5′,6′,8a′-hexahydroindolizin]-7′-yl]-2-(4-fluorophenyl)-3-(pyridin-4-yl)-1H-pyrrole] |  | 0.044 µM | 0.0083 µM |
| CO[C@H]1C[C@H]2C=C(c3c[nH]c(-c4ccc(F)cc4)c3-c3ccncc3)CCN2C1 [Example 21′, 2-(4-Fluorophenyl)-4-[(2S,8aS)-2-methoxy-1,2,3,5,6,8a-hexahydroindolizin-7-yl)-3-(pyridin-4-yl)-1H-pyrrole] |  | 0.046 µM | 0.018 µM |
| C=C1C[C@H]2C=C(c3c[nH]c(-c4ccc(F)cc4)c3-c3ccncc3)CCN2C1 [Example 23′, 2-(4-Fluorophenyl)-4-[(8aS)-2-methylidene-1,2,3,5,6,8a-hexahydroindolizin-7-yl]-3-(pyridin-4-yl)-1H-pyrrole] |  | 0.0037 µM | 0.0038 µM |
| CC1(C)C[C@H]2C=C(c3c[nH]c(-c4ccc(F)cc4)c3-c3ccncc3)CCN2C1 [Example 27′] |  | 0.0038 µM | 0.0014 µM |
| CS[C@H]1C[C@H]2C=C(c3c[nH]c(-c4ccc(F)cc4)c3-c3ccncc3)CCN2C1 [Example 29′, 2-(4-Fluorophenyl)-4-[(2S,8aS)-2-methylthio-1,2,3,5,6,8a-hexahydroindolizin-7-yl]-3-(pyridin-4-yl)-1H-pyrrole] |  | 0.0036 µM | 0.001 µM |
| CCCCS[C@H]1C[C@H]2C=C(c3c[nH]c(-c4ccc(F)cc4)c3-c3ccncc3)CCN2C1 [Example 34′, 4-[(2S,8aS)-2-Butylthio-1,2,3,5,6,8a-hexahydroindolizin-7-yl)-2-(4-fluorophenyl)-3-(pyridin-4yl)-1H-pyrrole] |  | 0.046 µM | 0.049 µM |
| CCS[C@H]1C[C@H]2C=C(c3c[nH]c(-c4ccc(F)cc4)c3-c3ccncc3)CCN2C1 [Example 36′, 4-[(2S,8aS)-2-Ethylthio-1,2,3,5,6,8a-hexahydroindolizin-7-yl]-2-(4-fluorophenyl)-3-(pyridin-4-yl)-1H-pyrrole] |  | 0.018 µM | 0.026 µM |
| CC=C1C[C@H]2C=C(c3c[nH]c(-c4ccc(F)cc4)c3-c3ccncc3)CCN2C1 [Example 37′, 4-[(8aS)-2-Ethylidene-1,2,3,5,6,8a-hexahydroindolizin-7-yl]-2-(4-fluorophenyl)-3-(pyridin-4-yl)-1H-pyrrole] |  | 0.01 µM | 0.058 µM |
| Fc1ccc(-c2[nH]cc(C3=CCN(CCc4ccccc4)CC3)c2-c2ccncc2)cc1 [Example 58, 2-(4-Fluorophenyl)-4-(1-phenethyl-1,2,3,6-tetrahydropyridin-4-yl)-3-(pyridin-4-yl)-1H-pyrrole] | 0.089 µM |  |  |
| Fc1ccc(-c2[nH]cc(C3=C[C@@H]4CCCN4CC3)c2-c2ccncc2)cc1 [Example 83, (−)-2-(4-Fluorophenyl)-4-(1,2,3,5,6,8a-hexahydroindolizin-7-yl)-3-(pyridin-4-yl)-1H-pyrrole] | 0.026 µM |  |  |
